Laboratory results: US8183414B2, “N-(1-phenyl-2-arylethyl)-4,5-dihydro-2H-pyrrol-5-amine compounds as subtype selective modulators of ALPHA2B or ALPHA2B and ALPHA2C adrenoceptors” (Allergan, Inc., priority 2008, dated 2012)
pEC50: −log10 of the molar value. Read-outs that look alike come from different tables or passages of the source.

Assays:
Format in all cases: cell-based
[1] = molecular target: T1, α2B adrenergic receptor (Homo sapiens, UniProt P18089); experiment: RSAT (Receptor Selection and Amplification Technology) assay, α2B; conditions: for RSAT EC50 α2B / pEC50: cells expressing the receptor alone, receptor-mediated growth response, NA = not active; for RSAT Rel Eff α2B: relative efficacy compared to a standard full agonist
T1 construct: expressed in transfected cells
T1 sequence (P18089 1-450): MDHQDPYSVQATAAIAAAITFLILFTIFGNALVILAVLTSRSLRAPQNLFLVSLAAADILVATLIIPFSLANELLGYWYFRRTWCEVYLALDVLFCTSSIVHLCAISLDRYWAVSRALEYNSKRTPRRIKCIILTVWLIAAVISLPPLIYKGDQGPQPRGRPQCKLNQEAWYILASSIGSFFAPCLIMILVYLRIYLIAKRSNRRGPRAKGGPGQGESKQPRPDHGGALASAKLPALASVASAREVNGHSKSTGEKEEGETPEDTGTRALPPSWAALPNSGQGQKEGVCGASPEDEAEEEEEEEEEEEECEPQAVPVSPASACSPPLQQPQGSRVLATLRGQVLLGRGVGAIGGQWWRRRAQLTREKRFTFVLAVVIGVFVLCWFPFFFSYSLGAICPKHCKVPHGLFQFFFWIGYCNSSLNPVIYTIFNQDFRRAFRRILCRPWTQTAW
Description: (§1) Cells expressing each of the alpha-2 adrenergic receptors alone were incubated with the various compounds and a receptor-mediated growth response was measured.

[2] = molecular target: T2, α2C adrenergic receptor (Homo sapiens, UniProt P18825); experiment: RSAT (Receptor Selection and Amplification Technology) assay, α2C; conditions: for pEC50: cells expressing the receptor alone, receptor-mediated growth response, NA = not active; for RSAT Rel Eff α2C: relative efficacy compared to a standard full agonist
T2 construct: expressed in transfected cells
T2 sequence (P18825 1-462): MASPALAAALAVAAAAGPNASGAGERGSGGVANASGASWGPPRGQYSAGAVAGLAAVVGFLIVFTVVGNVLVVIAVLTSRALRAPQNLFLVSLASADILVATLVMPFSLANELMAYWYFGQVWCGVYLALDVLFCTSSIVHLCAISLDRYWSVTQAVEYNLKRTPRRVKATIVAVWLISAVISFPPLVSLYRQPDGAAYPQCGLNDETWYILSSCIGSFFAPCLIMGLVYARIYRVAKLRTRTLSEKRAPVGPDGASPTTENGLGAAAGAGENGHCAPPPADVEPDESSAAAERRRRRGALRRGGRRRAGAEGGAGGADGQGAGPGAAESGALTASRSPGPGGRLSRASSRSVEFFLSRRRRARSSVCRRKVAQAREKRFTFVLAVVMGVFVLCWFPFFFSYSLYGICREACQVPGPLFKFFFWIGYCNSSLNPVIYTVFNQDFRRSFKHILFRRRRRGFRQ
Description: as §1

[3] = molecular target: T3, α2A adrenergic receptor (Homo sapiens, UniProt P08913); experiment: RSAT (Receptor Selection and Amplification Technology) assay, α2A
T3 construct: expressed in transfected cells
T3 sequence (P08913 1-465): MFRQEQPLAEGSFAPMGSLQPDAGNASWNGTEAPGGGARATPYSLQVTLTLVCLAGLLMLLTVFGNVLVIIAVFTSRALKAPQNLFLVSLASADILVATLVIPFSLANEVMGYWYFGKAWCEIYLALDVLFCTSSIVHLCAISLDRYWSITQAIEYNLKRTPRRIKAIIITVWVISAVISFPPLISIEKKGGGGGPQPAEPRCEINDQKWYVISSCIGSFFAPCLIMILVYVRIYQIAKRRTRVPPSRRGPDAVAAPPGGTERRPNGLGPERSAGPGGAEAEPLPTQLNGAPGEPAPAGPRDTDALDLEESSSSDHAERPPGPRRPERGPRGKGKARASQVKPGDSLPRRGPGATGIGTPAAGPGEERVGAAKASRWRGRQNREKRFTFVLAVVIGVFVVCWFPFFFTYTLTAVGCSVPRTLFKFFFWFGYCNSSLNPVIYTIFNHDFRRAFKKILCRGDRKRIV
Description: Novel compounds having this general structure were synthesized and tested for alpha adrenergic activity using the Receptor Selection and Amplification Technology (RSAT) assay (Messier et. al., 1995, Pharmacol. Toxicol. 76, pp. 308-311). Cells expressing each of the alpha-2 adrenergic receptors alone were incubated with the various compounds and a receptor-mediated growth response was measured. The compounds activity is described as its EC50 and relative efficacy compared to a standard full agonist.

| Compound | RSAT Rel Eff α2B [1] | pEC50 ([1]; read-out: RSAT EC50 α2B) | pEC50 [2] | RSAT Rel Eff α2C [2] | further results |
| --- | --- | --- | --- | --- | --- |
| Cc1ccccc1CC(NC1=NCCC1)c1cccc(Cl)c1 (centres unmarked) [Compound 9] | (0.62) | 8.49 | 8.55 | – | – |
| Clc1ccc(CC(NC2=NCCC2)c2cccc(Cl)c2Cl)c(Cl)c1 (centres unmarked) [Compound 22] | (1.03) | 8.15 | – | – | – |
| Cc1c(F)cccc1CC(NC1=NCCC1)c1cccc(Cl)c1Cl (centres unmarked) [Compound 15] | (0.70) | 7.89 | – | – | – |
| Clc1cccc(C(Cc2ccncc2)NC2=NCCC2)c1Cl (centres unmarked) [Compound 1] | (1.25) | 8.05 | 7.32 | (0.59) | – |
| Cc1cncc(CC(NC2=NCCC2)c2cccc(Cl)c2)c1 (centres unmarked) [Compound 29] | (1.1) | – | 7.53 | (0.36) | pEC50 ([3]; cells expressing the receptor alone, receptor-mediated growth response, NA = not active): 6.53; RSAT Rel Eff α2A ([3]; relative efficacy compared to a standard full agonist): (0.31); RSAT EC50 α2B [1]: Potent |
| Clc1ccccc1C(Cc1ccncc1)NC1=NCCC1 (centres unmarked) [Compound 4] | (0.57) | 7.42 | 7.99 | (0.56) | – |
| Cc1cccc(C(Cc2ccncc2)NC2=NCCC2)c1C (centres unmarked) [Compound 2] | (1.04) | 8.06 | 7.07 | (0.37) | – |
| Fc1ccc(CC(NC2=NCCC2)c2cccc(Cl)c2Cl)cc1 (centres unmarked) [Compound 11] | (0.80) | 8.10 | – | – | – |
| Clc1cccc(C(Cc2ccccc2)NC2=NCCC2)c1 (centres unmarked) [Compound 8] | (0.71) | 7.94 | – | – | – |
| Clc1cccc(C(Cc2ccc(Cl)nc2)NC2=NCCC2)c1 (centres unmarked) [Compound 31] | (0.84) | – | – | – | pEC50 ([1]; RSAT EC50 α2B): 7.17 |
| Cc1cccc(C(Cc2ccccc2)NC2=NCCC2)c1C (centres unmarked) [Compound 6] | (0.72) | 8.54 | – | – | – |
| Clc1cccc(C(Cc2ccccc2Br)NC2=NCCC2)c1Cl (centres unmarked) [Compound 12] | (0.96) | 8.06 | – | – | – |
| Clc1ccc(Cl)c(CC(NC2=NCCC2)c2cccc(Cl)c2Cl)c1 (centres unmarked) [Compound 16] | (1.04) | 7.98 | 7.90 | (0.35) | – |
| Clc1cccc(C(Cc2ccccc2)NC2=NCCC2)c1Cl (centres unmarked) [Compound 7] | (0.88) | 8.18 | – | – | – |
| c1ccc(CC(NC2=NCCC2)c2ccccc2)cc1 (centres unmarked) [Compound 3] | (0.63) | 7.67 | 7.85 | (0.36) | – |
| Fc1c(Cl)cccc1C(Cc1ccncc1)NC1=NCCC1 (centres unmarked) [Compound 5] | (0.94) | 7.97 | – | – | – |
| COc1cccc(CC(NC2=NCCC2)c2cccc(Cl)c2Cl)c1 (centres unmarked) [Compound 13] | (0.97) | 8.40 | 7.89 | (0.36) | – |
| Clc1ccccc1C(Cc1ccccc1)NC1=NCCC1 (centres unmarked) [Compound 10] | (0.51) | 7.92 | 7.88 | (0.37) | – |
| Fc1c(Cl)cccc1C(Cc1ccccc1)NC1=NCCC1 (centres unmarked) [Compound 14] | (0.96) | 8.07 | 8.20 | (0.36) | – |
| c1ccc(C(Cc2ccccn2)NC2=NCCC2)cc1 (centres unmarked) [Compound 24] | (0.44) | 6.67 | – | – | – |
| Fc1cccc(Cl)c1CC(NC1=NCCC1)c1cccc(Cl)c1Cl (centres unmarked) [Compound 17] | (0.73) | 7.71 | – | – | – |

More lines, main results first:

| RSAT Rel Eff α2B [1] | pEC50 ([1]; read-out: RSAT EC50 α2B) | pEC50 [2] | RSAT Rel Eff α2C [2] | Compound | further results |
| --- | --- | --- | --- | --- | --- |
| (1.19) | – | – | – | Clc1cccc(C(Cc2cccnc2)NC2=NCCC2)c1Cl (centres unmarked) [Compound 28, N-(1-(2,3-dichlorophenyl)-2-(pyridin-3-yl)ethyl)-3,4-dihydro-2H-pyrrol-5-amine] | RSAT EC50 α2B [1]: Potent |
| (0.85) | 8.29 | – | – | Cc1cccc(C(Cc2cncc(C)c2C)NC2=NCCC2)c1 (centres unmarked) [Compound 34] | – |
| (1.09) | – | – | – | Clc1cccc(C(Cc2cccnc2Cl)NC2=NCCC2)c1 (centres unmarked) [Compound 30] | RSAT EC50 α2B [1]: Potent |
| (0.93) | 8.51 | 7.71 | (0.43) | Cc1cccc(C(Cc2ccncc2)NC2=NCCC2)c1C (single isomer, unassigned) [Compound 18] | – |
| (0.69) | 7.24 | – | – | Clc1cccc(C(CCc2ccccc2)NC2=NCCC2)c1Cl (centres unmarked) [Compound 23] | – |
| (0.74) | 7.09 | – | – | c1ccc(C(Cc2cccnc2)NC2=NCCC2)cc1 (centres unmarked) [Compound 25] | – |
| (0.81) | 7.23 | 7.40 | (0.34) | c1ccc(C(Cc2ccncc2)NC2=NCCC2)cc1 (centres unmarked) [Compound 21] | – |
| (1.18) | 8.66 | 7.77 | (0.46) | Clc1cc(Cl)cc(CC(NC2=NCCC2)c2cccc(Cl)c2Cl)c1 (centres unmarked) [Compound 20] | – |
| (0.58) | 6.68 | – | – | Cc1cccc(C(Cc2ccncc2)NC2=NCCC2)c1C (single isomer, unassigned) [Compound 19] | – |
| (1.04) | – | – | – | Cc1cccc(C(Cc2cccnc2)NC2=NCCC2)c1C (centres unmarked) [Compound 27] | RSAT EC50 α2B [1]: Potent |
| (0.91) | 7.70 | – | – | Cc1cncc(CC(NC2=NCCC2)c2cccc(Cl)c2)c1C (centres unmarked) [Compound 33] | – |
| (0.92) | 7.95 | – | – | Cc1c(Br)cncc1CC(NC1=NCCC1)c1cccc(Cl)c1 (centres unmarked) [Compound 32] | – |
| (0.93) | 8.07 | – | – | Clc1ccc(CC(NC2=NCCC2)c2cccc(Cl)c2Cl)cc1Cl (centres unmarked) [Compound 26] | – |
